pEC50: −log10 of the molar value.
What was measured:
[1] = biological target: T1, alpha2A adrenergic receptor (Homo sapiens, UniProt P08913); experiment: Receptor Selection and Amplification Technology (RSAT) assay, alpha2A; format: cell-based; settings: NIH-3T3 cells, agonism, read-out: EC50, Alpha 2A
T1 sequence (P08913 1-465): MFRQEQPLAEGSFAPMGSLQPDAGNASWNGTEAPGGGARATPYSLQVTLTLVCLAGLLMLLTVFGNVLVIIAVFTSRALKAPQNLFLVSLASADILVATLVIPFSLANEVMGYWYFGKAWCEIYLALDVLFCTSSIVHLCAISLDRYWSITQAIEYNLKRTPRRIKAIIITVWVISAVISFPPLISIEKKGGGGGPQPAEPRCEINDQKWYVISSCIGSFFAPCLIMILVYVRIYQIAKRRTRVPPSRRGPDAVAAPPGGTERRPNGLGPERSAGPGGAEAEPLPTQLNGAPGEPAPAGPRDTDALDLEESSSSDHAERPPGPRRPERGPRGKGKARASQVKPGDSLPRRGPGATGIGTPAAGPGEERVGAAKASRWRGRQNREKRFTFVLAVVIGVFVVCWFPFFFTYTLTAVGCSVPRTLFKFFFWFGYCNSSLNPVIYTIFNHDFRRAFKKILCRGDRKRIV
From the text: (§1) The imidazole-2-thione compounds of the invention are agonists of alpha2 adrenergic receptors, particularly they tend to be specific or selective agonists of alpha2B and/or to a lesser extent alpha2C adrenergic receptors, in preference over alpha2A adrenergic receptors. […] Al., 1995, Pharmacol. Toxicol. 76, pp. 308-311 (incorporated herein by reference) and is also described below. Another reference pertinent to this assay is Conklin et al. (1993) Nature 363:274-6, also incorporated herein by reference.
(§2) Receptor Selection and Amplification Technology (RSAT) Assay
(§3) The RSAT assay measures a receptor-mediated loss of contact inhibition that results in selective proliferation of receptor-containing cells in a mixed population of confluent cells. The increase in cell number is assessed with an appropriate transfected marker gene such as β-galactosidase, the activity of which can be easily measured in a 96-well format. […]
(§4) NIH-3T3 cells are plated at a density of 2×10^6 cells in 15 cm dishes and maintained in Dulbecco's modified Eagle's medium supplemented with 10% calf serum. […] After washing with phosphate-buffered saline, β-galactosidase enzyme activity is determined by adding 200 μl of the chromogenic substrate (consisting of 3.5 mM o-nitrophenyl-β-D-galactopyranoside and 0.5% nonidet P-40 in phosphate buffered saline), incubating overnight at 30° C. and measuring optical density at 420 nm. […]

[2] = biological target: T2, alpha2B adrenergic receptor (Homo sapiens, UniProt P18089); experiment: Receptor Selection and Amplification Technology (RSAT) assay, alpha2B; format: cell-based; settings: for pEC50: RSAT, NIH-3T3 cells, agonism, read-out: EC50, Alpha 2B; for Emax: fraction of maximal effect of standard agonist brimonidine, read-out: intrinsic activity, Alpha 2B
T2 construct: expressed in transfected cells; host or cells: NIH-3T3
T2 sequence (P18089 1-450): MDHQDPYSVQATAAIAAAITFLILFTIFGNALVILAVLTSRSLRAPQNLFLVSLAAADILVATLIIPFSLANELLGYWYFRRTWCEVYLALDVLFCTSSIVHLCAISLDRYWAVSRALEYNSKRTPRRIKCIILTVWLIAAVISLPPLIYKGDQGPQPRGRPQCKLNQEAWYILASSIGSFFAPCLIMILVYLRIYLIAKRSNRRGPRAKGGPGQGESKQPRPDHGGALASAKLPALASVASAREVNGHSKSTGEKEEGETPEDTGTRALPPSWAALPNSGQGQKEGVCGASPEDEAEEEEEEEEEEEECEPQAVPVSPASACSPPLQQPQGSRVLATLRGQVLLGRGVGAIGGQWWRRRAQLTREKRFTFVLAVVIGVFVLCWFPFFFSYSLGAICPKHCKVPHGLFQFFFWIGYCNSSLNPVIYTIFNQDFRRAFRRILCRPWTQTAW
From the text: as §1, §2
The RSAT assay measures a receptor-mediated loss of contact inhibition that results in selective proliferation of receptor-containing cells in a mixed population of confluent cells. The increase in cell number is assessed with an appropriate transfected marker gene such as β-galactosidase, the activity of which can be easily measured in a 96-well format. Receptors that activate the G protein, Gq, elicit this response. Alpha2 receptors, which normally couple to Gi, activate the RSAT response when coexpressed with a hybrid Gq protein that has a Gi receptor recognition domain, called Gq/i5.
NIH-3T3 cells are plated at a density of 2×10^6 cells in 15 cm dishes and maintained in Dulbecco's modified Eagle's medium supplemented with 10% calf serum. One day later, cells are cotransfected by calcium phosphate precipitation with mammalian expression plasmids encoding p-SV-β-galactosidase (5-10 μg), receptor (1-2 μg) and G protein (1-2 μg). 40 μg salmon sperm DNA may also be included in the transfection mixture. Fresh media is added on the following day and 1-2 days later, cells are harvested and frozen in 50 assay aliquots. Cells are thawed and 100 μl added to 100 μl aliquots of various concentrations of drugs in triplicate in 96-well dishes. Incubations continue 72-96 hr at 37° C. After washing with phosphate-buffered saline, β-galactosidase enzyme activity is determined by adding 200 μl of the chromogenic substrate (consisting of 3.5 mM o-nitrophenyl-β-D-galactopyranoside and 0.5% nonidet P-40 in phosphate buffered saline), incubating overnight at 30° C. and measuring optical density at 420 nm. The absorbance is a measure of enzyme activity, which depends on cell number and reflects a receptor-mediated cell proliferation. The EC50 and maximal effect of each drug at each alpha2 receptor is determined. The efficacy or intrinsic activity is calculated as a ratio of the maximal effect of the drug to the maximal effect of a standard full agonist for each receptor subtype. Brimonidine, also called UK14304, the chemical structure of which is shown below, is used as the standard agonist for the alpha2A, alpha2B and alpha2C receptors. […]

[3] = biological target: T3, alpha2C adrenergic receptor (Homo sapiens, UniProt P18825); experiment: Receptor Selection and Amplification Technology (RSAT) assay, alpha2C; format: cell-based; settings: NIH-3T3 cells, agonism, read-out: EC50, Alpha 2C
T3 construct: expressed in transfected cells; host or cells: NIH-3T3
T3 sequence (P18825 1-462): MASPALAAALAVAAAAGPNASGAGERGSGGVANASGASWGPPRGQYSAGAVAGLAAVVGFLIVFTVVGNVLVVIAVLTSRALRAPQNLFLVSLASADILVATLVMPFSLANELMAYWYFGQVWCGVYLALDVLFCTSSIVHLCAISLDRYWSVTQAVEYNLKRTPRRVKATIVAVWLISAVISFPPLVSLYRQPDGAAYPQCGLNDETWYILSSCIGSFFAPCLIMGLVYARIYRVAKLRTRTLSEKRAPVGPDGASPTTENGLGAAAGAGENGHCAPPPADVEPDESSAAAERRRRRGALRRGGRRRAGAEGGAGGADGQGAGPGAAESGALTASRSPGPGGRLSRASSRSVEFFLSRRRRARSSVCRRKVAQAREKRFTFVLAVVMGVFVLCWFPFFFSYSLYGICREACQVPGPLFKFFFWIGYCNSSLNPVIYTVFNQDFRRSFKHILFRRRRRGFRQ
From the text: as §1, §2, §3, §4

[4] = system: rats with surgical ligation of L5 and L6 spinal nerves (tactile allodynia); experiment: Chung model of neuropathic pain (tactile allodynia, von Frey hairs); format: in vivo, rat; settings: 30 min after dosing
From the text: Alleviation of Chronic Pain
A model in accordance with Kim and Chung 1992, Pain […], pp 355-363 (Chung model), for chronic pain (in particular peripheral neuropathy) involves the surgical ligation of the L5 (and optionally the L6) spinal nerves on one side in experimental animals. Rats recovering from the surgery gain weight and display a level of general activity similar to that of normal rats. However, these rats develop abnormalities of the foot, wherein the hindpaw is moderately everted and the toes are held together. More importantly, the hindpaw on the side affected by the surgery appears to become sensitive to pain from low-threshold mechanical stimuli, such as that producing a faint sensation of touch in a human, within about 1 week following surgery. This sensitivity to normally non-painful touch is called “tactile allodynia” and lasts for at least two months. The response includes lifting the affected hindpaw to escape from the stimulus, licking the paw and holding it in the air for many seconds. None of these responses is normally seen in the control group.
Rats are anesthetized before surgery. The surgical site is shaved and prepared either with betadine or Novacaine. Incision is made from the thoracic vertebra X111 down toward the sacrum. Muscle tissue is separated from the spinal vertebra (left side) at the L4-S2 levels. The L6 vertebra is located and the transverse process is carefully removed with a small rongeur to expose the L4-L6 spinal nerves. The L5 and L6 spinal nerves are isolated and tightly ligated with 6-0 silk thread. The same procedure is done on the right side as a control, except no ligation of the spinal nerves is performed.
A complete hemostasis is confirmed, then the wounds are sutured. A small amount of antibiotic ointment is applied to the incised area, and the rat is transferred to the recovery plastic cage under a regulated heat-temperature lamp. On the day of the experiment, at least seven days after the surgery, typically six rats per test group are administered the test drugs by intraperitoneal (i.p.) injection or oral gavage. For i.p. injection, the compounds are formulated in approximately 10 to 50% DMSO and given in a volume of 1 ml/kg body weight.
Tactile allodynia is measured prior to and 30 minutes after drug administration using von Frey hairs that are a series of fine hairs with incremental differences in stiffness. Rats are placed in a plastic cage with a wire mesh bottom and allowed to acclimate for approximately 30 minutes. The von Frey hairs are applied perpendicularly through the mesh to the mid-plantar region of the rats' hindpaw with sufficient force to cause slight buckling and held for 6-8 seconds. The applied force has been calculated to range from 0.41 to 15.1 grams. If the paw is sharply withdrawn, it is considered a positive response. A normal animal will not respond to stimuli in this range, but a surgically ligated paw will be withdrawn in response to a 1-2 gram hair. The 50% paw withdrawal threshold is determined using the method of Dixon, W. J., Ann. Rev. Pharmacol. Toxicol. 20:441-462 (1980). The post-drug threshold is compared to the pre-drug threshold and the percent reversal of tactile sensitivity is calculated based on a normal threshold of 15.1 grams. The results are expressed in percent (%) MPE, where the MPE value reflects the percentage reversal of pain threshold to that of a normal animal (100%). Table 3 below indicates results of this test with Compounds 1, 7 and 29 of the invention, administered i.p. and in oral doses.

pEC50 [1] | pEC50 [2] | Emax [2] [%] | pEC50 [3] | Compound | % Pain Reversal ± SEM ([4]; 10 μg/kg i.p.) [%] | % Pain Reversal ± SEM ([4]; 30 μg/kg i.p.) [%] | % Pain Reversal ± SEM ([4]; 100 μg/kg i.p.) [%] | % Pain Reversal ± SEM ([4]; 100 μg/kg p.o.) [%] | % Pain Reversal ± SEM ([4]; 300 μg/kg i.p.) [%] | % Pain Reversal ± SEM ([4]; 30 μg/kg p.o.) [%] | % Pain Reversal ± SEM ([4]; 300 μg/kg p.o.) [%]
< 5.00 | 6.95 | 104 | < 5.00 | Cc1ccc2c(n1)CC(Cc1c[nH]c(=S)[nH]1)CC2 (racemic) [Compound 201, 4-(2-methyl-5,6,7,8-tetrahydro-quinolin-7-ylmethyl)-1,3-dihydro-imidazole-2-thione] | 0.65 ± 0.91 | 42 ± 5.7 | 75.1 ± 5.7 | 64 ± 7 | 82.5 ± 7.4 | – | –
< 5.00 | 7.04 | 99 | < 5.00 | Cc1ccc2c(n1)CC(Cc1c[nH]c(=S)[nH]1)CC2 (single isomer, unassigned) [Compound 202, 4-(2-methyl-5,6,7,8-tetrahydro-quinolin-7-ylmethyl)-1,3-dihydro-imidazole-2-thione] | – | – | – | 49 ± 7.2 | – | 28 ± 8.5 | 75 ± 8.1
